Data on five compounds can be found in patent publication US11278518B2, “Methods of treatment using 4-methylumbelliferone and derivatives thereof” (The Board of Trustees of the Leland Stanford Junior …, priority 2017, dated 2022).

Structures are written as SMILES. Entries after “also recorded” stand apart in the source; their conditions may differ.

For data set [1] the following is noted: in vivo, cited from earlier work.
Data set [2] deals with Biliary Duct Ligation (BDL) model. As to conditions: 4-MU; cited from earlier work.
A further data set deals with obese, diabetic mice. Particulars: 4-MU treatment; cited from earlier work.
The subject of a further data set is EAE. Particulars: 4-MU treatment; cited from earlier work.
The test system of data set [3] is collagen-induced arthritis model. As to conditions: 4-MU treatment; cited from earlier work.
In data set [4] the test system is DORmO and NOD mouse models. As to conditions: 4-MU treatment; cited from earlier work.
The subject of another data set is acute lung injury. Particulars: 4-MU treatment; cited from earlier work.
Another data set has as its system ApoE-deficient mice. Particulars: 4-MU treatment, high-fat diet; cited from earlier work.
Another data set deals with DORmO mice. As to the kind of experiment: Onset of diabetes in DORmO mice. The class given is in vivo. The text has this: In proof-of-principle studies, 12 candidate esters of 4-MU and 4 candidate esters of 4-MUG were generated and the conversion of these compounds into 4-MU in buffer containing bovin serum was examined. […] Compounds A and B were individually administered to 8 week old DORmO mice. Compound B, butyl-4-MUG, delayed diabetes onset by one month when compared to Compound A. In contrast, mice fed Compound A, ethyl-4-MUG, developed diabetes at 12 weeks of age, at the same time as untreated DORmO mice. […] Briefly, to determine that HA accumulates in the pancreatic islets and creates a permissive environment for autoimmune attacks during autoimmune diabetes disease progression, the DORmO double transgenic mouse model of autoimmune diabetes was used. DORmO mice predictably develop autoimmune diabetes because they are bred to have both a target antigen on their insulin producing beta-cells as well as an immune system that specifically recognizes that antigen. DORmO mice are the result of a cross between RIPmOVA mice (a strain that carries a gene specific for hen egg ovalbumin (OVA) that is only expressed on beta-cells, emulating the auto-antigen) and DO11.10 mice (a strain that carries a T-cell receptor transgene specific for OVA, emulating auto-reactive CD4+ T cells). DORmO mice spontaneously develop autoimmune insulitis starting at four weeks of age and all animals become diabetic (hyperglycemia >200 mg/dl) by 20 weeks of age (Wesley, J. D., et al., J. Immunol. 185, 4760-4768 (2010). Beginning at four weeks of age, mice were weighed weekly as well as bled via the tail vein for the determination of their blood glucose level using a Contour blood glucose meter and blood glucose monitoring strips (Bayer Healthcare). When two consecutive blood glucose readings of 250 mg/dL were recorded, animals were considered diabetic. When two consecutive blood glucose readings of 300 mg/dL were recorded, animals were euthanized. For the in vivo part the oral delivery in the drinking water was the same as for 4-MUG. […]

Data set [5] concerns FoxP3+ regulatory T-cells. As to the kind of experiment: Induction of FoxP3+ regulatory T-cells in vivo. Particulars: mice. Here is the method:
(§1) The 4-MU (Alfa Aesar) was pressed into the mouse chow by TestDiet® and irradiated before shipment. This chow formulation delivered 250 mg/mouse/day, yielding a serum drug concentration of 640.3±17.2 nmol/L in mice, as measured by HPLC-MS. 4-MUG (ChemImpex) was distributed in the drinking water of the mice at a 5% concentration which should deliver 0.325 mg/mouse/day, yielding a serum drug concentration of 357.1±72.6 ng/mL in mice, as measured by HPLC-MS. Mice were initiated on 4-MU and 4-MUG at five, eight or twelve weeks of age, unless otherwise noted, and were maintained on this diet until they were euthanized, unless otherwise noted. For analysis of Foxp3+ regulatory T cell numbers in naïve mice, mice were treated daily with 0.5 mg of 4-MU or 1.0 mg 4-MUG in 200 μl 0.08% carboxymethylcellulose in saline by intraperitoneal (i.p.) injection.

The next data set relates to HA synthesis. As to the kind of experiment: Hyaluronan (HA) ELISA of B16F10 cell cultures, inhibition of HA synthesis. The class given is cell-based, murine. Particulars: cells cultured 24-72 hours, HA in ELISA-like assay, normalized. Here is the method: B16F10 is a murine melanoma cell line. […] The cells were cultured at 37° C. temperature and an atmosphere of 95% air and 5% carbon dioxide. Cells were cultured in DMEM plus 10% FBS. For the 4-MUG ester experiments, cells were seeded in 48-well plates, at a density of 10,000 cells per well and cultured for 24-72 hours. 4-MU, 4-MUG and the 4-MUG esters were diluted 1:1000 from their stock concentration and added to the cell medium in their final μM concentrations. For the analysis, the cells and the cell supernatant were collected at the end of each experiment and stored at −20° C. until further use. 48-well plates from previous experiments were thawed and 200 μL cell lysis buffer was added to each well. Cells were incubated for 15 minutes at room temperature. The whole lysate was transferred into a 96-well v-bottom plate and centrifuged at 3500 g for 20 minutes at 4° C. After spinning 25 μL from each well was transferred into a flat-bottom 96-well plate and stored until further use. Cell lysis buffer contains Tris-HCl, EDTA, SDS, MgCl2 and Super Nucleasis®. Protein measurement was performed by using the Pierce BCA Protein Assay Kit® (Thermo Scientific) according to the manufacturer instructions. The BCA Protein assay is based on bicinchoninic acid (BCA) for the colorimetric detection and quantitation of total protein. This method combines a biuret reaction (reduction of Cu2+ to Cu1+ by protein in an alkaline medium) with a highly and selective colorimetric detection of the cuprous cation (Cu1+) with the help of bicinchoninic acid. A purple-colored reaction product is formed by the chelation of two BCA molecules with one cuprous ion. This complex has a strong absorbance at 562 nm. The identification of HA in the samples is achieved by utilizing a highly specific HA binding protein (HABP) probe that interacts with HA. […] The HA concentration in the tissue is determined by using an ELISA-like assay. […] The plate was read at 405 nm and the concentrations were calculated according to the standards.
A general note: In an ELISA, binding on a coated surface is turned into a signal by an enzyme label.

A short description of data set [6]: Serum drug concentration in mice by HPLC-MS. Type of data set: in vivo. As to conditions: 4-MUG in drinking water at 5%, 0.325 mg/mouse/day. Here is the method: as §1, with “([…])” for “(ChemImpex)”
For data set [7] the following is noted: after 6 months of treatment; cited from earlier work.

`Cc1cc(=O)oc2cc(O)ccc12` [Compound 4-MU, 4-methylumbelliferone]: in [1] (first-pass glucuronidation), the bioavailability is 2-3%. Further, the “extraction by the liver” value in [1] is recorded as at most 97%. The fibrosis entry in data set [2] is recorded as “reduce fibrosis”. Besides, the glycemia result in the data set on obese, diabetic mice is reported as “restores normoglycemia”. Moreover, the EAE disease result with EAE was “prevent and treat disease; also recorded: limit the progression”. Besides, in data set [3], the disease scores result is on record as “improved disease scores”. The “progression of autoimmune diabetes” value in data set [4] was “limit the progression”. Also, the lung injury result in the data set on acute lung injury is given as “decreased or prevented lung injury”. In addition, the atherosclerosis entry in the data set with ApoE-deficient mice was “worse atherosclerosis”. The protection from diabetes entry in the data set with DORmO mice (0.65% 4-MU (approximately 10x less)) is listed as “only partially protective”.

`Cc1cc(=O)oc2cc(O[C@@H]3O[C@H](C(=O)O)[C@@H](O)[C@H](O)[C@H]3O)ccc12` [Compound 4-MUG, 4-methylumbelliferone glucuronide]: in data set [5], the “fraction of Foxp3+ regulatory T-cells (induction)” value is “also has this property in vivo; also recorded: does increase; also recorded: increases”, the “numbers of CD3+ T-cells” value is reported as “does not increase”, the “numbers of CD4+ T-cells” value was “does not increase” and the “numbers of CD25+ T-cells” value was “does not increase”. Further, in the data set with HA synthesis, the “inhibition of HA synthesis” value is given as “inhibits HA synthesis by human cell lines as well as 4-MU; also recorded: inhibits HA synthesis as effectively as 4-MU”. Besides, the serum drug concentration in [6] is 357.1 ± 72.6 ng/mL.

For the compound `CCOC(=O)C1O[C@@H](Oc2ccc3c(C)cc(=O)oc3c2)C(O)[C@H](O)[C@@H]1O` (stereo partly drawn) [Compound A, 4-methylumbelliferyl β-D-glucuronide ethyl ester], in the data set on HA synthesis, the “inhibition of HA synthesis” value is given as “best inhibited HA synthesis in vitro”. For the same compound, the “age at which mice developed diabetes” value in the data set on DORmO mice (8 week old DORmO mice, 0.05% in drinking water) was 12 weeks.

In the case of `CCCCOC(=O)C1O[C@@H](Oc2ccc3c(C)cc(=O)oc3c2)C(O)[C@H](O)[C@@H]1O` (stereo partly drawn) [Compound B], the “inhibition of HA synthesis” value with HA synthesis is “best inhibited HA synthesis in vitro”. For the same compound, the onset of diabetes entry with DORmO mice (at 1/100th the dose of 4-MU) is recorded as “delays the onset of diabetes”.

In the case of `C[C@H](CCC(=O)O)[C@H]1CC[C@H]2[C@@H]3[C@@H](O)C[C@@H]4C[C@H](O)CC[C@]4(C)[C@H]3CC[C@]12C` [UDCA, ursodeoxycholic acid], the “bile concentration of UDCA” value in data set [7] is “up to 70%”.
